The results in this text go back to patent US20260373248A1, “DEGRADABLE PEPTOIDS” (Medici Therapeutics, Inc., priority 2023, published 2026).

Data set [1] deals with luciferase. The experiment in a line: Luciferase expression after local (intramuscular or subcutaneous) administration of mRNA. Conditions: mRNA 0.01 mpk, 6 hours; for IM Flux: intramuscular; for SC Flux: subcutaneous. The data set is classed as in vivo. In outline:
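Female Balb/c mice (6-8 weeks) received fLuc mRNA in aminolipidated peptoid Nutshells at 0.01 mpk subcutaneously or intramuscularly, or 0.1 mpk intratumorally. At 6 hours, anesthetized mice were given D-luciferin IP and imaged 10 minutes later; harvested organs were also imaged and total photon flux quantified in regions of interest.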

The test system of data set [2] is firefly luciferase. The experiment in a line: In vivo firefly luciferase expression after intravenous injection of fLuc mRNA delivery vehicles (IVIS imaging). Further details: species or system female Balb/c mice. As to conditions: for Total Flux (luciferase expression): fLuc mRNA, intravenous, Balb/c mice; for Total Flux: mice, 2.5 ug fLuc mRNA intravenously, 6 hours post-injection. In a few lines: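 Female Balb/c mice (6-8 weeks) given 2.5 ug fLuc mRNA in Nutshells IV. At 6 hours, IP D-luciferin (30 mg/mL, 10 μL/g) under isoflurane; IVIS imaging 10 minutes later, then harvested organs imaged ex vivo. Read-out: total photon flux in regions of interest.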

A short description of data set [3]: Peptoid quantity remaining in liver by HPLC-TOF mass spectrometry. The data set is classed as in vivo. Conditions: liver homogenate. The protocol:
Peptoid quantity in liver was determined via high-performance liquid chromatography coupled with time-of-flight mass spectrometer (HPLC-TOF). The entire liver was weighed, and then two sections were isolated using a provided biopsy punch for liver homogenization. Liver homogenate sample was prepared by resuspending 20 mg liver tissue in 400 μL extraction solvent (IPA/MeOH=8/2) containing an internal standard (400 pg/μL) followed by bead homogenization (45 sec per cycle for 3-4 cycles). Homogenized samples were centrifuged at 12,000 rpm for 8 min at 6 °C. The resulting supernatant was collected and stored at −20 °C for further LC analysis. 5 μL of the resulting supernatant sample from solid or liquid tissue was injected into a BEH C8 column on an Agilent 1290 Infinity II liquid chromatograph coupled with an Agilent 6230 LC-TOF system. Concentrations of peptoids were determined by a linear calibration curve (linear range:0.2-50 μg/g for solid tissue). Standard calibration curve solutions were prepared by spiking untreated liver followed by homogenization and centrifugation.

The test system of data set [4] is hEPO. The experiment in a line: Quantification of hEPO in serum after IV injection of mRNA (Human EPO ELISA). The class given is in vivo. As to conditions: Balb/c mice, 2.5 μg mRNA IV, serum after 6 hours. As for the experimental part: Balb/c mice were treated with 2.5 μg of mRNA coding for human erythropoiten via IV injection according to a similar method as in Example 4. hEPO protein in the serum was quantified after 6 hours using the Human EPO ELISA Kit from Invitrogen (catalog #BMS2035-2). Wash buffer (PBS with 1% tween 20) and assay buffer (PBS with 1% tween 20, 10% BSA) were prepared from a 20× concentrate with milli-Q water. Serum samples were diluted with PBS according to expected EPO concentration, with a 50× dilution for low expression samples and up to a 30,000× dilution for samples expected to have high expression. Microwell strips were washed in a plate washer with wash buffer and tapped on an absorbent pad to remove excess buffer. 100 μL of sample diluent were added to each well that will be used for the standard curve. 50 μL of sample diluent was added to each sample well.
The standard curve was prepared by reconstituting the human erythropoietin standard by adding the volume of water listed on the vial label. Standard was swirled gently and allowed to reconstitute for 10 minutes prior to use, then 100 μL is added to standard wells and mixed well. 100 μL from standard wells were then transferred to sample wells and mixed well. This was repeated 5 times to produce 2 columns of standard dilutions from 100 to 1.6 mIU/mL. 100 μL was discarded from the last microwells. The final 2 wells contained 100 μL of sample diluent and served as a blank. An external standard was also included to facilitate a mIU/mL conversion to ng/mL. The same serial dilution method was repeated starting with the external standard at 6.25 ng/mL. Once the standards were added, 50 μL of each sample was added in duplicate to the sample wells. Next, the biotin-conjugate was prepared by diluting 1:100 in assay buffer. 50 μL of biotin-conjugate was added to all wells and the plate was covered with a plate seal and shaken at room temperature for 1 hour. During the last few minutes of shaking, streptavidin-HRP was prepared by diluting 1:100 in assay buffer. The plate was washed on a plate washer and tapped on an absorbent pad to remove remaining wash buffer.
100 μL of the diluted streptavidin-HRP was added to each well and the plate was sealed and shaken for 15 minutes at room temperature. After 15 minutes, the plate seal was removed and the plate was washed on a plate washer and remaining wash buffer tapped out on an absorbent pad. 100 μL of TMB substrate was added to all wells and the plate was incubated for 10 minutes at room temperature out of direct light. Color development was checked every few minutes and the assay was stopped when the highest standard was dark blue. The reaction was stopped by pipetting 100 μL of stop solution into each well. Immediately after stop solution was added, the plate was gently tapped to ensure the solution was mixed. Absorbance was then read at 450 nm for each well. A standard curve was plotted for both the kit-provided standards (mIU/mL) and the external standard (ng/mL) and fit using Prism. Sample absorbances that fell within the standard curve were interpolated and adjusted for dilution (including a 2× assay dilution). Samples that were not within the standard curve were repeated at an adjusted dilution.

The test system of data set [5] is mRNA. Put plainly: mRNA encapsulation (modified Quant-iT RiboGreen assay). The class given is physicochemical. Conditions: for mean percent encapsulation of RNA: RiboGreen, without vs with Triton X-100; for % Encapsulation: mRNA. In outline:
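Peptoid nanoparticles were incubated with Triton X-100 for 10 min to release entrapped mRNA, then mixed with RiboGreen reagent and read by fluorescence (ex 485 nm/em 530 nm). Percent encapsulation was derived from the ratio of fluorescence without versus with Triton X-100.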

Data set [6] is described as follows: Delivery vehicle size and polydispersity by dynamic light scattering. The data set is classed as physicochemical. In outline:
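LNPs made by microfluidic mixing of ethanolic peptoid/DSPC/cholesterol/DMG-PEG2000 (20:1.79:7.16:1.84 by weight) with mRNA in 10 mM citrate pH 5.0 at 1:3 by volume, then dialyzed overnight at 4 °C against tris-sucrose pH 7.4. Size and PDI read by dynamic light scattering in PBS.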

Where [7] appears, read: DLS in PBS, peptoid:DSPC:Cholesterol:DMG-PEG2000 weight ratio 20:1.79:7.16:1.84, mRNA.

Starred links: 1 amine or outer side, 2 acyl side, 3 side chain; linkers in the order of their positions; H or OH if unused. Non-standard residues stand in square brackets, D forms with d. Residues, ends and D or L forms follow the SMILES beside them. *: point of attachment. Gly(N-(3-decanoyloxypropyl)) = CCCCCCCCCC(=O)OCCCNCC(=O)O; N(3-lauroyloxypropyl)Gly = CCCCCCCCCCCC(=O)OCCCNCC(=O)O; Gly(N-(CH2)3O-octanoyl) = CCCCCCCC(=O)OCCCNCC(=O)O; N(3-imidazol-1-ylpropyl)Gly = O=C(O)CNCCCn1ccnc1; Gly(N-3-morpholinopropyl) = O=C(O)CNCCCN1CCOCC1; N(2-ethylhexyl)Gly = CCCCC(CC)CNCC(=O)O; X2 = CCCCCCC(CCCC)CN(CC(=O)[*:2])[*:1]; Gly(N-dodecyl) = CCCCCCCCCCCCNCC(=O)O; N(CH(CH2OH)2)Gly = O=C(O)CNC(CO)CO; N(octyl)Gly = CCCCCCCCNCC(=O)O; NHexGly = CCCCCCNCC(=O)O; For = O=C*

As for `CCCCCCCCCCCC(=O)OCCCN(CC(=O)N(CC(N)=O)CC(CC)CCCC)C(=O)CN(CCCCCCCC)C(=O)CN(CC(CC)CCCC)C(=O)CN(CCCOC(=O)CCCCCCCCCCC)C(=O)CN(CCCCCCCC)C(=O)CN(C=O)CCCN1CCOCC1` (stereo not shown) [Compound 74] (For-[Gly(N-3-morpholinopropyl)][N(octyl)Gly][N(3-lauroyloxypropyl)Gly][N(2-ethylhexyl)Gly][N(octyl)Gly][N(3-lauroyloxypropyl)Gly][N(2-ethylhexyl)Gly]-NH2), the “IM Flux” value in data set [1] is 4.87E+07 p/s. Also, the “SC Flux” value in data set [1] was 2.11E+08 p/s. For the same compound, the “Total Flux (luciferase expression)” value in data set [2] (formulation recipe D22) was 1.96E+09 p/s; in data set [2] (formulation recipe O5) it was 1.92E+09 p/s; in data set [2] (formulation recipe O8) it was 3.39E+09 p/s. Besides, the “Total Flux” value in data set [2] is listed as 1.96E+09 p/s. Besides, in data set [3], the “% of injected dose remaining in liver” value was “bdl”. For the same compound, the hEPO in data set [4] is 354 ng/mL. The “mean percent encapsulation of RNA” value in data set [5] stood at 67.6%. Besides, the “% Encapsulation” value in data set [5] (formulation recipe D22) was found to be 67.6%; in data set [5] (formulation recipe O5) it was 90.4%; in data set [5] (formulation recipe O8), 91.5%. Besides, the PDI in data set [6] (setting [7]) is 0.151. The “Particle Size” value in data set [6] (setting [7]) came to 87.1 nm; in data set [6] (formulation recipe D22), 87.1 nm; in data set [6] (formulation recipe O5), 70.1 nm; in data set [6] (formulation recipe O8) it was 71.7 nm.
As for `CCCCCCCCCCCC(=O)OCCCN(C=O)CC(=O)N(CCCOC(=O)CCCCCCCCCCC)CC(=O)N(CC(=O)N(CCCN1CCOCC1)CC(=O)N(CCCOC(=O)CCCCCCCCCCC)CC(=O)N(CCCOC(=O)CCCCCCCCCCC)CC(=O)N(CC(N)=O)CC(CC)CCCC)CC(CC)CCCC` (stereo not shown) [Compound 81] (For-[N(3-lauroyloxypropyl)Gly][N(3-lauroyloxypropyl)Gly][N(2-ethylhexyl)Gly][Gly(N-3-morpholinopropyl)][N(3-lauroyloxypropyl)Gly][N(3-lauroyloxypropyl)Gly][N(2-ethylhexyl)Gly]-NH2), in data set [1], the “IM Flux” value stood at 2.11E+08 p/s and the “SC Flux” value amounted to 6.97E+07 p/s. Moreover, in data set [2], the “Total Flux” value was determined as 1.89E+08 p/s. Besides, the “% of injected dose remaining in liver” value in data set [3] came out at 6.17%. For the same compound, the hEPO in data set [4] worked out at 52 ng/mL.
In the case of `CCCCCCCCCC(=O)OCCCN(CC(N)=O)C(=O)CN(CCCOC(=O)CCCCCCCCC)C(=O)CN(CC(CC)CCCC)C(=O)CN(CCCOC(=O)CCCCCCCCC)C(=O)CN(CCCOC(=O)CCCCCCCCC)C(=O)CN(CC(CC)CCCC)C(=O)CNC(CO)CO` (stereo not shown) [Compound 102] (H-[N(CH(CH2OH)2)Gly][N(2-ethylhexyl)Gly][Gly(N-(3-decanoyloxypropyl))][Gly(N-(3-decanoyloxypropyl))][N(2-ethylhexyl)Gly][Gly(N-(3-decanoyloxypropyl))][Gly(N-(3-decanoyloxypropyl))]-NH2), in data set [1], the “IM Flux” value was 2.12E+08 p/s and the “SC Flux” value was 1.76E+08 p/s. Besides, in data set [2], the “Total Flux” value turned out to be 1.90E+09 p/s. Also, in data set [3], the “% of injected dose remaining in liver” value is 0.86%. This compound showed a hEPO in data set [4] of 207 ng/mL. Also, the “mean percent encapsulation of RNA” value in data set [5] is on record as 47.1%. Further, in data set [6] (setting [7]), the PDI was determined as 0.123 and the “Particle Size” value was 97.8 nm.
For the compound `CCCCCCCC(=O)OCCCN(CC(=O)N(CC(=O)N(CC(=O)N(CCCOC(=O)CCCCCCC)CC(=O)N(CC(N)=O)CC(CCCC)CCCCCC)CC(CC)CCCC)CC(CCCC)CCCCCC)C(=O)CN(CC(CC)CCCC)C(=O)CNC(CO)CO` (stereo not shown) [Compound 104] (H-[N(CH(CH2OH)2)Gly][N(2-ethylhexyl)Gly][Gly(N-(CH2)3O-octanoyl)][X2][N(2-ethylhexyl)Gly][Gly(N-(CH2)3O-octanoyl)][X2]-NH2), in data set [1], the “IM Flux” value is 1.34E+08 p/s and the “SC Flux” value came to 1.93E+08 p/s. Moreover, the “Total Flux” value in data set [2] was determined as 4.50E+09 p/s. Besides, the “% of injected dose remaining in liver” value in data set [3] was 7.45%. This compound yielded a hEPO in data set [4] of 693 ng/mL. Besides, in data set [5], the “mean percent encapsulation of RNA” value came out at 93.6%. In addition, in data set [6] (setting [7]), the PDI was found to be 0.092 and the “Particle Size” value is recorded as 78.8 nm.
Take `CCCCCCCCCCCC(=O)OCCCN(CC(=O)N(CCCOC(=O)CCCCCCCCCCC)CC(=O)N(CCCCCC)CC(=O)N(CCCOC(=O)CCCCCCCCCCC)CC(=O)N(CCCOC(=O)CCCCCCCCCCC)CC(=O)N(CCCCCC)CC(N)=O)C(=O)CNCCCn1ccnc1` [Compound 73] (H-[N(3-imidazol-1-ylpropyl)Gly][N(3-lauroyloxypropyl)Gly][N(3-lauroyloxypropyl)Gly][NHexGly][N(3-lauroyloxypropyl)Gly][N(3-lauroyloxypropyl)Gly][NHexGly]-NH2): in data set [1], the “IM Flux” value was 5.36E+07 p/s and the “SC Flux” value stood at 6.38E+07 p/s. The “% of injected dose remaining in liver” value in data set [3] stood at 10.58%. The compound also had a hEPO in data set [4] of 27.8 ng/mL. In addition, in data set [5], the “mean percent encapsulation of RNA” value is 66.2%. In data set [6] (setting [7]), the PDI is 0.289 and the “Particle Size” value is given as 111.2 nm.
Consider `CCCCCCCCCCCCN(C=O)CC(=O)N(CCCOC(=O)CCCCCCCCCCC)CC(=O)N(CC(=O)N(CCCn1ccnc1)CC(=O)N(CC(=O)N(CCCOC(=O)CCCCCCCCCCC)CC(=O)N(CCCCCCCCCCCC)CC(N)=O)CC(CC)CCCC)CC(CC)CCCC` (stereo not shown) [Compound 85] (For-[Gly(N-dodecyl)][N(3-lauroyloxypropyl)Gly][N(2-ethylhexyl)Gly][N(3-imidazol-1-ylpropyl)Gly][N(2-ethylhexyl)Gly][N(3-lauroyloxypropyl)Gly][Gly(N-dodecyl)]-NH2), for which, in data set [1], the “IM Flux” value is recorded as 5.99E+07 p/s and the “SC Flux” value is given as 4.21E+07 p/s. The “% of injected dose remaining in liver” value in data set [3] is 40.01%. The same compound displayed a hEPO in data set [4] of 26.3 ng/mL. Further, in data set [5], the “mean percent encapsulation of RNA” value was found to be 0.0%. In data set [6] (setting [7]), the PDI was 0.102 and the “Particle Size” value stood at 81.1 nm.
